Test results published in PubChem BioAssay AID1259411 (Chemical Carcinogenesis Research Information System (CCRIS), 2018).
Active and inactive are the calls of the source. No rule for the calls is given here.

Tested on: rodent carcinogenicity bioassays, tumor incidence
Experiment: CCRIS carcinogenicity studies
Method in brief: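 NCI-built, expert-reviewed records of carcinogenicity and related test outcomes (mutagenicity, tumor promotion/inhibition) compiled from published and report sources, historical span 1985-2011, not updated.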

For S=c1[nH]c2ccccc2s1, the carcinogen call (Species: MOUSE, Strain/Sex: B6C3F1/FEMALE, Route: GAVAGE, Dose: 0, 375, 750 MG/KG IN CORN OIL 5D/WK FOR 103 WK (STUDY DURATION: 104 WK), Dose: 0, 375, 750 MG/KG IN CORN OIL 5D/WK FOR 103 WK (STUDY DURATION: 104 WK), Tumor Site: Type of Lesion: LIVER: HEPATOCELLULAR ADENOMA OR CARCINOMA) was “equivocal”, the carcinogen call (Species: MOUSE, Strain/Sex: B6C3F1/MALE, Route: GAVAGE, Dose: 0, 375, 750 MG/KG IN CORN OIL 5D/WK FOR 103 WK (STUDY DURATION: 104 WK), Dose: 0, 375, 750 MG/KG IN CORN OIL 5D/WK FOR 103 WK (STUDY DURATION: 104 WK)) was “inactive; negative” and the carcinogen call (Species: RAT, Strain/Sex: F344/FEMALE, Route: GAVAGE, Dose: 0, 188, 375 MG/KG IN CORN OIL 5D/WK FOR 103 WK (STUDY DURATION: 105 WK), Dose: 0, 188, 375 MG/KG IN CORN OIL 5D/WK FOR 103 WK (STUDY DURATION: 105 WK), Tumor Site: Type of Lesion: PITUITARY GLAND: ADENOMA, PITUITARY GLAND: ADENOMA OR ADENOCARCINOMA, ADRENAL GLAND: PHEOCHROMOCYTOMA, Tumor Site: Type of Lesion: PITUITARY GLAND: ADENOMA, PITUITARY GLAND: ADENOMA OR ADENOCARCINOMA, ADRENAL GLAND: PHEOCHROMOCYTOMA) was “active; positive”. The carcinogen call (Species: RAT, Strain/Sex: F344/MALE, Route: GAVAGE, Dose: 0, 375, 750 MG/KG IN CORN OIL 5D/WK FOR 103 WK (STUDY DURATION: 105 WK), Dose: 0, 375, 750 MG/KG IN CORN OIL 5D/WK FOR 103 WK (STUDY DURATION: 105 WK), Tumor Site: Type of Lesion: HEMATOPOIETIC SYSTEM: MONONUCLEAR CELL LEUKEMIA, PANCREAS: ACINAR CELL ADENOMA) was “active; positive”.
With Cc1cccc2c1cc(C)c1c3c(ccc12)C(O)C(O)C1OC31 (configuration not stated) the carcinogen call (Species: MOUSE, Strain/Sex: ICR/FEMALE, Route: INTRAPERITONEAL, Dose: 0, 8 NMOL IN 5 µL DMSO TO PUPS ON D 1/OF LIFE THEN 16 NMOL IN 10 µL ON D 8 AND 3 NMOL IN 20 µL ON D 15 (STUDY DURATION:, Tumor Site: Type of Lesion: LUNG: TUMOR) was “active; positive” and the carcinogen call (Species: MOUSE, Strain/Sex: ICR/MALE, Route: INTRAPERITONEAL, Dose: 0, 8 NMOL IN 5 µL DMSO TO PUPS ON D 1/OF LIFE THEN 16 NMOL IN 10 µL ON D 8 AND 3 NMOL IN 20 µL ON D 15 (STUDY DURATION:, Tumor Site: Type of Lesion: LUNG: TUMOR, LIVER: TUMOR) was “active; positive”.
In the case of CNNC (tested in a mixture with another compound), the carcinogen call (Species: RAT, Strain/Sex: CD-1/MALE, Route: INTRAPERITONEAL, Dose: 0, 10 MG/KG/WK FOR 4 WK (STUDY DURATION: 1 YEAR), Tumor Site: Type of Lesion: PANCREAS: ADENOCARCINOMA, COLON: ADENOCARCINOMA) is reported as “active; positive”.
With OO the carcinogen call (Species: MOUSE, Strain/Sex: C57BL/MALE,FEMALE, Route: ORAL, Dose: 0, 0.1%, 0.4% IN DRINKING WATER (STUDY DURATION: 108 WK), Dose: 0, 0.1%, 0.4% IN DRINKING WATER (STUDY DURATION: 108 WK), Tumor Site: Type of Lesion: DUODENUM: ADENOMA, ADENOCARCINOMA) was “active; positive”.
With O=[N+]([O-])c1ccc2ccc3c([N+](=O)[O-])c4ccccc4c4ccc1c2c34 the carcinogen call (Species: RAT, Strain/Sex: F344/MALE, Route: SUBCUTANEOUS IMPLANT, Dose: 0, 8, 40, 200, 1000 UG IN 50 µL BEESWAX/TRICAPRYLIN IMPLANTED FOR UP TO 45 WK (STUDY DURATION: 45 WK), Dose: 0, 8, 40, 200, 1000 UG IN 50 µL BEESWAX/TRICAPRYLIN IMPLANTED FOR UP TO 45 WK (STUDY DURATION: 45 WK)) was “inactive; negative” and the carcinogen call (Species: RAT, Strain/Sex: F344/MALE, Route: SUBCUTANEOUS, Dose: 0, 8, 40, 200, 1000 UG SUSPENDED IN BEESWAX/TRICAPRYLIN (1:1) ONCE, Dose: 0, 8, 40, 200, 1000 UG SUSPENDED IN BEESWAX/TRICAPRYLIN (1:1) ONCE) was “inactive; negative”.
For C=CCN(N=O)C(N)=O, the carcinogen call (Species: RAT, Strain/Sex: F344/FEMALE, Route: GAVAGE, Dose: 0, 13 MG/ML (TOTAL DOSE 0; 1.2 MMOL) IN 2 ML ETHYL ACETATE AND CORN OIL (1:2) 2/WK FOR 30 WK (STUDY DURATION: LIFETIME), Dose: 0, 13 MG/ML (TOTAL DOSE 0; 1.2 MMOL) IN 2 ML ETHYL ACETATE AND CORN OIL (1:2) 2/WK FOR 30 WK (STUDY DURATION: LIFETIME), Tumor Site: Type of Lesion: FORESTOMACH: SQUAMOUS CELL CARCINOMA, MAMMARY GLAND: TUMOR) was “active; positive”, the carcinogen call (Species: RAT, Strain/Sex: F344/FEMALE, Route: GAVAGE, Dose: 0, 13 MG/ML IN 0.2 ML ETHYL ACETATE AND CORN OIL 2/WK FOR 30 WK (STUDY DURATION: LIFESPAN), Tumor Site: Type of Lesion: FORESTOMACH: TUMOR, MAMMARY GLAND: TUMOR) was “active; positive” and the carcinogen call (Species: RAT, Strain/Sex: F344/MALE, Route: GAVAGE, Dose: 0, 13 MG/ML (TOTAL DOSE 0; 1.2 MMOL) IN 2 ML ETHYL ACETATE AND CORN OIL (1:2) 2/WK FOR 30 WK (STUDY DURATION: LIFETIME), Dose: 0, 13 MG/ML (TOTAL DOSE 0; 1.2 MMOL) IN 2 ML ETHYL ACETATE AND CORN OIL (1:2) 2/WK FOR 30 WK (STUDY DURATION: LIFETIME), Tumor Site: Type of Lesion: FORESTOMACH: SQUAMOUS CELL CARCINOMA, LUNG: TUMOR, COLON: TUMOR, ZYMBAL GLAND: TUMOR, Tumor Site: Type of Lesion: FORESTOMACH: SQUAMOUS CELL CARCINOMA, LUNG: TUMOR, COLON: TUMOR, ZYMBAL GLAND: TUMOR) was “active; positive”. For the same molecule, the carcinogen call (Species: RAT, Strain/Sex: F344/MALE, Route: GAVAGE, Dose: 0, 13 MG/ML IN 0.2 ML ETHYL ACETATE AND CORN OIL 2/WK FOR 30 WK (STUDY DURATION: LIFESPAN), Tumor Site: Type of Lesion: FORESTOMACH: TUMOR, LUNG: COLON: TUMOR, ZYMBAL GLAND: TUMOR, Tumor Site: Type of Lesion: FORESTOMACH: TUMOR, LUNG: COLON: TUMOR, ZYMBAL GLAND: TUMOR) was “active; positive”.
In the case of Cn1cc(-c2ccccc2)c(=O)c(-c2cccc(C(F)(F)F)c2)c1, the carcinogen call (Species: Mouse, Strain/Sex: ICR/Female (60?/Group), Route: Oral, Dose: 0, 33, 100, 330 ppm (0; 4.0; 12.3; 34.5 mg/kg/day) of 97.2-97.8% fluridone in diet for 2 yr, study duration 2 yr, Dose: 0, 33, 100, 330 ppm (0; 4.0; 12.3; 34.5 mg/kg/day) of 97.2-97.8% fluridone in diet for 2 yr, study duration 2 yr) is reported as “inactive; negative. (possible increased incidence of skin fibrosarcomas in high dose femal”, the carcinogen call (Species: Mouse, Strain/Sex: ICR/Male (60?/Group), Route: Oral, Dose: 0, 33, 100, 330 ppm (0; 3.5; 10.9; 30.7 mg/kg/day) of 97.2-97.8% fluridone in diet for 2 yr, study duration 2 yr, Dose: 0, 33, 100, 330 ppm (0; 3.5; 10.9; 30.7 mg/kg/day) of 97.2-97.8% fluridone in diet for 2 yr, study duration 2 yr) is reported as “inactive; negative” and the carcinogen call (Species: Rat, Strain/Sex: Fischer 344/Female (60/Group), Route: Oral, Dose: 0, 200, 650, 2000 ppm of 97.2-97.8% fluridone in diet for 2 yr, study duration 2 yr, Dose: 0, 200, 650, 2000 ppm of 97.2-97.8% fluridone in diet for 2 yr, study duration 2 yr) is reported as “inactive; negative”. The carcinogen call (Species: Rat, Strain/Sex: Fischer 344/Male (60/Group), Route: Oral, Dose: 0, 200, 650, 2000 ppm of 97.2-97.8% fluridone in diet for 2 yr, study duration 2 yr, Dose: 0, 200, 650, 2000 ppm of 97.2-97.8% fluridone in diet for 2 yr, study duration 2 yr) was “inactive; negative”.
For CC1CC(=O)O1 (configuration not stated), the carcinogen call (Species: MOUSE, Route: DERMAL, Tumor Site: Type of Lesion: INTEGUMENTARY SYSTEM (SKIN)) was “active; positive”, the carcinogen call (Species: MOUSE, Route: SUBCUTANEOUS, Tumor Site: Type of Lesion: INJECTION SITE) was “active; positive” and the carcinogen call (Species: RAT, Route: GAVAGE, Tumor Site: Type of Lesion: FORESTOMACH) was “active; positive”. For the same molecule, the carcinogen call (Species: RAT, Route: SUBCUTANEOUS, Tumor Site: Type of Lesion: INJECTION SITE) was “active; positive”.
For CCOP(=O)(SC(C)CC)N1CCSC1=O (configuration not stated), the carcinogen call (Species: Mouse, Strain/Sex: CD-1/Female (60/Group), Route: Oral, Dose: 0, 1.11, 3.20, 10.4, 39.2 mg/kg/day of 93.3% fosthiazate in diet for 104 wk, study duration 102 wk, Dose: 0, 1.11, 3.20, 10.4, 39.2 mg/kg/day of 93.3% fosthiazate in diet for 104 wk, study duration 102 wk) was “inactive; negative”, the carcinogen call (Species: Mouse, Strain/Sex: CD-1/Male (60/Group), Route: Oral, Dose: 0, 1.02, 3.10, 10.3, 30.5 mg/kg/day of 93.3% fosthiazate in diet for 104 wk, study duration 102 wk, Dose: 0, 1.02, 3.10, 10.3, 30.5 mg/kg/day of 93.3% fosthiazate in diet for 104 wk, study duration 102 wk) was “inactive; negative” and the carcinogen call (Species: Rat, Strain/Sex: CD/Female (50/Group), Route: Oral, Dose: 0, 0.051, 0.50, 2.45, 11.69 mg/kg/day of 93.3% fosthiazate in diet for 104 wk, study duration 104 wk, Dose: 0, 0.051, 0.50, 2.45, 11.69 mg/kg/day of 93.3% fosthiazate in diet for 104 wk, study duration 104 wk) was “inactive; negative”. The carcinogen call (Species: Rat, Strain/Sex: CD/Male (50/Group), Route: Oral, Dose: 0, 0.039, 0.38, 1.94, 8.34 mg/kg/day of 93.3% fosthiazate in diet for 104 wk, study duration 104 wk, Dose: 0, 0.039, 0.38, 1.94, 8.34 mg/kg/day of 93.3% fosthiazate in diet for 104 wk, study duration 104 wk) was “inactive; negative”.
With O=[N+]([O-])c1ccc2ccc3cccc4c5ccccc5c1c2c34 the carcinogen call (Species: MOUSE, Strain/Sex: B6C3F1/MALE, Route: INTRAPERITONEAL, Dose: 0, 400 NMOL IN 35 µL DMSO ON DAYS 1 (1/7 TOTAL DOSE), 8 (2/7 TOTAL DOSE), AND 15 (4/7 TOTAL DOSE) AFTER BIRTH (STUDY DUR) was “inactive; negative”.
